Entries after “also recorded” stand apart in the source; their conditions may differ.
Key:
plasmid DNA (pTG11033) = assay: Plasmid DNA melting curves; assay type: physicochemical; conditions: 50 μg/ml pTG11033 in 20 mM HEPES pH 7.5, 0-20% DPSO, 35-100° C., 260 nm; versus DNA alone
Experimental: Plasmid DNA melting curves were recorded on a thermostated UV/Visible CARY/VARIAN spectrophotometer (sofware version: 3.04) using 2 quartz cuvettes (L=1cm) with Teflon stopper.

pulmonary cells = assay: Luciferase activity in lungs of mice after intratracheal injection of plasmid/polar compound compositions; assay type: in vivo; conditions: B6/SJLF1 mice
Experimental: The chosen polynucleotide, i.e. the plasmid pTG11033 (FIG. 1), encompasses the gene encoding luciferase placed under the control of the CMV promoter, intron 1 of the HMG gene and the SV40 polyA termination signal. The plasmid DNA contained in 250 μl of a 1 mg/ml solution of purified plasmid (purified by centrifugation in a cesium chloride gradient) is precipitated with ethanol. After having been centrifuged, washed with 70% ethanol and dried, the nucleic acid pellet is taken up in a given volume of DESO or DPSO and of 20 mM Hepes buffer, pH 7.5, in order to give the following compositions as shown in Table I below: The 8-week-old female mice (B6/SJLF1, Iffa Credo) were anaesthetized by means of intraperitoneal injection (physiological saline, […] 1000, xylazine/ROMPUN). […] Each composition is injected into at least three different mice. The expression levels are compared with those obtained after injecting 50 μg of DNA in 50 μl of 20 mM Hepes, pH 7.5, without any addition of polar compound. A control in which the mice are not injected is also included in the protocol. The mice are sacrificed two days after the injections. The lungs and the trachea are treated independently. The tissues are frozen in liquid nitrogen and stored at -80° C. In order to measure the luciferase activity, the tissues are ground up mechanically using a pestle in a mortar which is placed on dry ice. 500 μl or 200 μl of a lysis buffer (Promega) are added to the tissue fragments obtained from the lungs or the trachea, respectively, and the solution is subjected to three steps of freezing/thawing. The cell debris is removed by centrifugation and the luciferase activity (in RLU/min, relative light unit per minute) is measured on 20 μl of supernatant, in accordance with the supplier's (Promega) instructions, by adding 100 μl of reagent and measuring the activity by means of luminescence. The luciferase activity which is measured is standardized in relation to the quantity of protein with the aid of a standard scale which is generated using commercially available luciferase (Promega). […]

airways cell = assay: Theophylline pretreatment before airway delivery of a composition comprising DPSO; assay type: in vivo; conditions: oral 0.3 mg theophylline to mice about 30 min before composition comprising DPSO
Excerpt: Finally, the invention relates to a cell which is transfected with a composition as previously defined, in particular a prokaryotic cell, or a yeast or eukaryotic cell, in particular an animal cell, in particular a mammalian cell, more especially a cancerous cell. According to a preferred embodiment of the invention, the said cell is an airways cell, more especially a tracheal or pulmonary cell, advantageously a cell of the respiratory epithelium. In the case of airway delivery, prior administration of bronchodilator compounds (for example, theophylline) could be advantageous.

## CCC[S+]([O-])CCC [DPSO, di-n-propyl sulphoxide]
Plasmid DNA (pTG11033)
  Absorbance change upon DNA melting: lowered
  temperature at which absorbance change (DNA melting) occurs: higher temperature
Pulmonary cells; 50 μg DNA, FIG. 4
  measured level of expression of the luciferase-encoding gene on increasing the percentage of the compound: improve the measured level of expression
Pulmonary cells; 50 μg DNA/50 μl, 15% (v/v) polar compound, sacrificed two days after injection, compared with polynucleotide alone
  expression of the luciferase gene in the pulmonary tissues: increases expression; also recorded: markedly improved
Pulmonary cells; 50 μg pTG11033/50 μl, 10 or 15% polar compound, compared with polynucleotide on its own
  transfection of the pulmonary cells (luciferase expression): best results

## Cn1c(=O)c2[nH]cnc2n(C)c1=O [theophylline]
Airways cell
  expression level compared with administration without pretreatment: slightly increase of the expression level
